Read-outs that look alike come from different tables or passages of the source.
How the values were obtained:
[1] = target: T1, human liver glycogen phosphorylase a (HLGPa) (Homo sapiens, UniProt P06737); experiment: GPa activity assay, reverse direction (inorganic phosphate release from glucose-1-phosphate), human liver isoform; assay type: biochemical
T1 construct: made in house; host or cells: E. coli XL-1 Blue (pKK233-2) or Sf9 insect cells (pBlueBac III baculovirus)
T1 sequence (P06737 2-847 limits assumed): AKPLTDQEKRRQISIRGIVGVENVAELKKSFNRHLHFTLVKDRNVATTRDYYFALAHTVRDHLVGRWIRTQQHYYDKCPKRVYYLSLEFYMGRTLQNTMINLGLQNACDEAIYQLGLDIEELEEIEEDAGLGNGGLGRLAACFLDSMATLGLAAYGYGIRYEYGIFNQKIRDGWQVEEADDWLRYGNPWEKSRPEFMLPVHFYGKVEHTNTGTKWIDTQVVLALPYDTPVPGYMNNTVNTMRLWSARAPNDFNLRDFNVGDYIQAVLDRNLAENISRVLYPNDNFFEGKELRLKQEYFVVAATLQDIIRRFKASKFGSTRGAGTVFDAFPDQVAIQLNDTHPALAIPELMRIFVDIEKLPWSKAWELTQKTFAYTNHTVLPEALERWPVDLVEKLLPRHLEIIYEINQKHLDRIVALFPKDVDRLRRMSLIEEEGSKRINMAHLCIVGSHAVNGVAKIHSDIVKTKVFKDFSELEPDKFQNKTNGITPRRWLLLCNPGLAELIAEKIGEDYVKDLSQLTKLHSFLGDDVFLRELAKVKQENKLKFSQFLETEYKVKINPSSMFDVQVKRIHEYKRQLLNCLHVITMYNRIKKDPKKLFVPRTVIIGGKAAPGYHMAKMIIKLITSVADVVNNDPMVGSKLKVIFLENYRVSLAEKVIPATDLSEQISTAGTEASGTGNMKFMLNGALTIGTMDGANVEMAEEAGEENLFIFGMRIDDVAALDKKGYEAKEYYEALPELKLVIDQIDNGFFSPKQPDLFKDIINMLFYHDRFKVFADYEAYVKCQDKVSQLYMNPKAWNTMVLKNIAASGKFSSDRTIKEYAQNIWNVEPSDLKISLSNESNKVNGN
Experimental: (§1) All reactions are run in triplicate in 96-well microtiter plates and the change in absorbance due to formation of the reaction product is measured at the wavelength specified below in a MCC/340 MKII Elisa Reader (Lab Systems, Finland), connected to a Titertech Microplate Stacker (ICN Biomedical Co, Huntsville, Ala.).
(§2) Buffer B is at pH 7.2 and contains 50 mM HEPES, 100 mM KCl, 2.5 mM EGTA, 2.5 mM MgCl2 and 0.5 mM dithiothreitol. […] After a 20 minute incubation at room temperature, the absorbance is measured at 620 nm.

[2] = target: T2, human muscle glycogen phosphorylase a (HMGPa) (Homo sapiens, UniProt P11217); experiment: GPa activity assay, reverse direction (inorganic phosphate release from glucose-1-phosphate), human muscle isoform; assay type: biochemical
T2 construct: made in house; host or cells: E. coli strain XL-1 Blue (plasmid pKK233-2)
T2 sequence (P11217 2-842 limits assumed): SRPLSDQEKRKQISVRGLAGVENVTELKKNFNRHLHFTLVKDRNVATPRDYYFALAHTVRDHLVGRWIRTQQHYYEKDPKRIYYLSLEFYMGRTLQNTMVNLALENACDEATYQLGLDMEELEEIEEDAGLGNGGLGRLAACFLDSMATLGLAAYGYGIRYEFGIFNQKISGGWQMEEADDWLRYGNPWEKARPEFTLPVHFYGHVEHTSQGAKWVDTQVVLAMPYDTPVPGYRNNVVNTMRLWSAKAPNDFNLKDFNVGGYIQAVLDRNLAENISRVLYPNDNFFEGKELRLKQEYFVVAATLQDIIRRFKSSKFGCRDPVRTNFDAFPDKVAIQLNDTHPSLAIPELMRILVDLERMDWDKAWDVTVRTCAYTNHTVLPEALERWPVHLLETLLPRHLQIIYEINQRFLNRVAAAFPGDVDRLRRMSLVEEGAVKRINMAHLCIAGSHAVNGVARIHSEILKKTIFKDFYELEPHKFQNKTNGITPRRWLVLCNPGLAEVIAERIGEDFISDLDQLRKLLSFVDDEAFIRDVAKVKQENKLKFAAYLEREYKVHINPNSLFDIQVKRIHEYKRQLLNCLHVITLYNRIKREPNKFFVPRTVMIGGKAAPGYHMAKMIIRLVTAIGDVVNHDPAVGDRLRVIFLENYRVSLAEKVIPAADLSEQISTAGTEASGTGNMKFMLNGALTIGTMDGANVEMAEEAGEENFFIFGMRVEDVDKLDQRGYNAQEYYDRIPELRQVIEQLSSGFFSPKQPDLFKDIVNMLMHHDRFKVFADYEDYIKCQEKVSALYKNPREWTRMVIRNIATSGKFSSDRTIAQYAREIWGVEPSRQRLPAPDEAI
Experimental: as §1, §2

rabbit isolated heart [3] = details: Liu et al., Cardiovasc. Res., 28:1057-1061, 1994; cited from earlier work
rabbit isolated heart [4] = experiment: Cardioprotection (reduction of infarcted myocardium) in isolated, retrogradely perfused (Langendorff) rabbit heart after regional ischemia and reperfusion; design: species or system Male New Zealand White rabbits; details: for Infarct Area/Area-at-Risk (%IA/AAR): standard error in own column, control 63.9
Excerpt: Cardioprotection, as indicated by a reduction in infarcted myocardium, can be induced pharmacologically using adenosine receptor agonists in isolated, retrogradely perfused rabbit hearts as an in vitro model of myocardial ischemic preconditioning (Liu et al., Cardiovasc. Res., 28:1057-1061, 1994). […] The exact methodology is described below.
The protocol used for these experiments closely follows that described by Liu et al., Cardiovasc. Res., 28:1057-1061, 1994. Male New Zealand White rabbits (3-4 kg) are anesthetized with sodium pentobarbital (30 mg/kg, i.v.). After deep anesthesia is achieved (determined by the absence of an ocular blink reflex) the animal is intubated and ventilated with 100% O2 using a positive pressure ventilator. A left thoracotomy is performed, the heart exposed, and a snare (2-0 silk) is placed loosely around a branch of the left anterior descending coronary artery, approximately 2/3 of the distance towards the apex of the heart. The heart is removed from the chest and rapidly (<30 sec) mounted on a Langendorff apparatus. The heart is retrogradely perfused via the aorta in a non-recirculating manner with a modified Krebs solution (NaCl 118.5 mM, KCl 4.7 mM, Mg SO4 1.2 mM, KH2 PO4 1.2 mM, NaHCO3 24.8 mM, CaCl2 2.5 mM, and glucose 10 mM), at a constant pressure of 80 mmHg and a temperature of 37° C. […] Heart rate and left ventricular pressures are determined via a latex balloon which is inserted in the left ventricle and connected by stainless steel tubing to a pressure transducer. […] Perfusate flow rates are routinely determined throughout the experimental period. […]
At the end of the 120 min reperfusion period, the coronary artery snare is tightened, and a 0.5% suspension of fluorescent zinc cadmium sulfate particles ([…]) is perfused through the heart; this stains all of the myocardium, except that area at risk for infarct development (area-at-risk). […] The infarcted area (no stain) and the area-at-risk (no fluorescent particles) are calculated for each slice of left ventricle using a precalibrated image analyzer. […]

[5] = reverse direction assay, HLGPa, read-out: HLGPa IC50

| Compound | IC50 [1, 5] | IC50 [2] | also measured |
| --- | --- | --- | --- |
| CON(C)C(=O)[C@H](O)[C@H](Cc1ccccc1)NC(=O)c1cc2cc(Cl)ccc2[nH]1 [5-Chloro-1H-indole-2-carboxylic acid {(1S)-[(R)-hydroxy-(methoxy-methylcarbamoyl)-methyl]-2-phenyl-ethyl}-amide] | 51 nM | 110 nM | – |
| CN(CCO)C(=O)[C@H](O)[C@H](Cc1ccccc1)NC(=O)c1cc2cc(Cl)ccc2[nH]1 [5-Chloro-1H-indole-2-carboxylic acid ((1S)-{(R)-hydroxy-[(2-hydroxy-ethyl)methyl-carbamoyl]-methyl}-2-phenyl-ethyl)-amide] | 152 nM | 20 nM | – |
| Nc1ccc(CCNc2ncnc3c2ncn3[C@@H]2O[C@H](CO)[C@@H](O)[C@H]2O)cc1 [APNEA, N^6-[2-(4-aminophenyl)ethyl]adenosine, reference compound] | – | – | pharmacologically induced cardioprotection in the rabbit isolated heart (rabbit isolated heart [3]): shown to pharmacologically induce cardioprotection; Infarct Area/Area-at-Risk (%IA/AAR) (rabbit isolated heart [4]; 500 nM, perfused 5 min, then 10 min drug-free, before 30 min ischemia and 120 min reperfusion, n=9): 19.0% |
| CN(C)C(=O)[C@H](O)[C@H](Cc1ccccc1)NC(=O)c1cc2cc(Cl)ccc2[nH]1 [5-Chloro-1H-indole-2-carboxylic acid [(1S)-((R)-hydroxy-dimethylcarbamoyl-methyl)-2-phenyl-ethyl]-amide] | – | 155 nM | IC50 [1]: 108 nM |
| O=C(N[C@@H](Cc1ccccc1)C(=O)N1CC(O)C1)c1cc2cc(Cl)ccc2[nH]1 [5-chloro-1H-indole-2-carboxylic acid [(1S)-benzyl-2-(3-hydroxy-azetidin-1-yl)-2-oxo-ethyl]-amide] | – | – | cardioprotection relative to the control group (rabbit isolated heart [4]; 5 μM): significant cardioprotection; Infarct Area/Area-at-Risk (%IA/AAR) (rabbit isolated heart [4]; 5 μM, perfused from 30 min before 30 min regional ischemia through 120 min reperfusion, n=6): 31.4% |

— US5952322A, “Method of reducing tissue damage associated with non-cardiac ischemia using glycogen phosphorylase inhibitors” (Pfizer Inc., priority 1997, dated 1999)
